These are literature values, as cited in patent publication US9895325B2, “Tablet composition comprising cinacalcet hydrochloride” (SYNTHON B.V., priority 2012, dated 2018).

The conditions of the data set: pH 1.

Regarding `C[C@@H](NCCCc1cccc(C(F)(F)F)c1)c1cccc2ccccc12.Cl` [Cinacalcet hydrochloride], the solubility entry was “approx. 0.1 mg/ml”.
